Data reported in US9549556B2, “Macrocyclic picolinamides as fungicides” (DOW AGROSCIENCES LLC, priority 2013, dated 2017).
Like-named read-outs stand apart in the source and are kept apart here.

How the values were obtained:
[1] = tested on: Puccinia triticina; test: Wheat brown rust (PUCCRT) disease control on wheat seedlings; assay type: in vivo; conditions: read-out: PUCCRT disease control rating (% Control); for pest or weed control at 100 ppm: high volume application; for pest or weed control at 121.5 g/ha: 121.5 g/H, low volume (track spray) application
[2] = tested on: Septoria tritici; test: Leaf blotch of wheat (SEPTTR) disease control on wheat seedlings; assay type: in vivo, Mycosphaerella graminicola (anamorph Septoria tritici); conditions: Zymoseptoria tritici, read-out: SEPTTR disease control rating (% Control); for pest or weed control at 100 ppm: high volume application; for pest or weed control at 121.5 g/ha: 121.5 g/H, low volume (track spray) application
Description: Evaluation of Fungicidal Activity: Leaf Blotch of Wheat (Mycosphaerella graminicola; Anamorph: Septoria tritici; Bayer Code […]) Technical grades of materials were dissolved in acetone, which were then mixed with nine volumes of water containing 110 ppm Triton X-100. The fungicide solutions were applied onto wheat seedlings using an automated booth sprayer to run-off. All sprayed plants were allowed to air dry prior to further handling. All fungicides were evaluated using the aforementioned method for their activity vs. all target diseases. Wheat leaf blotch and brown rust activity were also evaluated using track spray applications, in which case the fungicides were formulated as EC formulations, containing 0.1% Trycol 5941 in the spray solutions. Wheat plants (variety Yuma) were grown from seed in a greenhouse in 50% mineral soil/50% soil-less Metro mix until the first leaf was fully emerged, with 7-10 seedlings per pot. These plants were inoculated with an aqueous spore suspension of Septoria tritici either prior to or after fungicide treatments. After inoculation the plants were kept in 100% relative humidity (one day in a dark dew chamber followed by two to three days in a lighted dew chamber at 20° C.) to permit spores to germinate and infect the leaf. The plants were then transferred to a greenhouse set at 20° C. for disease to develop. When disease symptoms were fully expressed on the 1st leaves of untreated plants, infection levels were assessed on a scale of 0 to 100 percent disease severity. Percent disease control was calculated using the ratio of disease severity on treated plants relative to untreated plants.

| Compound | pest or weed control at 100 ppm ([1]; 24 h, 1DP (1 Day Protectant)) | pest or weed control at 100 ppm ([1]; 72 h, 3DC (3 Day Curative)) | pest or weed control at 100 ppm ([2]; 24 h, 1DP (1 Day Protectant)) | pest or weed control at 100 ppm ([2]; 72 h, 3DC (3 Day Curative)) | pest or weed control at 121.5 g/ha ([1]; 24 h, 1DP (1 Day Protectant)) | pest or weed control at 121.5 g/ha ([1]; 72 h, 3DC (3 Day Curative)) | pest or weed control at 121.5 g/ha ([2]; 24 h, 1DP (1 Day Protectant)) | pest or weed control at 121.5 g/ha ([2]; 72 h, 3DC (3 Day Curative)) |
| --- | --- | --- | --- | --- | --- | --- | --- | --- |
| CCCC[C@H]1[C@H](C)OC(=O)[C@@H](NC(=O)c2nccc(OC)c2O)COC[C@@H]1OCC1CC1 [Compound 3] | > 70% | > 70% | > 70% | < 70% |  |  |  |  |
| CCCO[C@H]1COC[C@H](NC(=O)c2nccc(OC)c2OCOC(=O)COCC)C(=O)O[C@@H](C)[C@@H]1Cc1ccc(F)cc1 [Compound 8] |  |  |  |  | > 70% | > 70% | > 70% | > 70% |
| COc1ccnc(C(=O)N[C@H]2COC[C@H](Oc3ccc(C)cc3)[C@@H](Cc3ccc(F)cc3)[C@H](C)OC2=O)c1OC(C)=O [Compound 10] |  |  |  |  | > 70% | < 70% | > 70% | > 70% |
| COc1ccnc(C(=O)N[C@H]2COC[C@H](OCc3ccccc3)[C@@H](CCC(C)C)[C@H](C)OC2=O)c1OCOC(C)=O [Compound 14] |  |  |  |  | > 70% | > 70% | > 70% | > 70% |
| CCCO[C@H]1COC[C@H](NC(=O)c2nccc(OC)c2O)C(=O)O[C@@H](C)[C@@H]1Cc1ccc(F)cc1 [Compound 17] | > 70% | > 70% | > 70% | > 70% |  |  |  |  |
| CCCO[C@H]1COC[C@H](NC(=O)c2nccc(OC)c2OCOC(C)=O)C(=O)O[C@@H](C)[C@@H]1CCC(C)C [Compound 18, ((2-(((3S,7R,8S,9S)-8-isopentyl-9-methyl-2-oxo-7-propoxy-1,5-dioxonan-3-yl)carbamoyl)-4-methoxypyridin-3-yl)oxy)methyl acetate] |  |  |  |  | > 70% | > 70% | < 70% | > 70% |
| CCCO[C@H]1COC[C@H](NC(=O)c2nccc(OC)c2OC(C)=O)C(=O)O[C@@H](C)[C@@H]1Cc1ccc(F)cc1 [Compound 20] |  |  |  |  | > 70% | > 70% | > 70% | > 70% |
| COc1ccnc(C(=O)N[C@H]2COC[C@H](Oc3ccc(C)cc3)[C@@H](Cc3ccc(F)cc3)[C@H](C)OC2=O)c1O [Compound 23] | > 70% | < 70% | > 70% | < 70% |  |  |  |  |
| COc1ccnc(C(=O)N[C@H]2COC[C@H](OCC3CC3)[C@@H](Cc3ccc(F)cc3)[C@H](C)OC2=O)c1O [Compound 24] | > 70% | > 70% | > 70% | > 70% |  |  |  |  |
| COc1ccnc(C(=O)N[C@H]2COC[C@H](OC(=O)C3CC3)[C@@H](Cc3ccc(F)cc3)[C@H](C)OC2=O)c1O [Compound 25] | > 70% | > 70% | > 70% | > 70% |  |  |  |  |
| CCOCC(=O)OCOc1c(OC)ccnc1C(=O)N[C@H]1COC[C@H](OCOCc2ccccc2)[C@@H](Cc2ccccc2)[C@H](C)OC1=O [Compound 26] | > 70% | > 70% | > 70% | > 70% |  |  |  |  |
| COc1ccnc(C(=O)N[C@H]2COC[C@H](OCC3CC3)[C@@H](Cc3ccc(F)cc3)[C@H](C)OC2=O)c1OC(C)=O [Compound 28] |  |  |  |  | > 70% | > 70% | > 70% | > 70% |
| COc1ccnc(C(=O)N[C@H]2COC[C@H](OCc3ccccc3)[C@@H](Cc3ccc(F)cc3)[C@H](C)OC2=O)c1OCOC(C)=O [Compound 30] |  |  |  |  | > 70% | > 70% | > 70% | > 70% |
| COc1ccnc(C(=O)N[C@H]2COC[C@H](OC(=O)C3CC3)[C@@H](CCC(C)C)[C@H](C)OC2=O)c1O [Compound 36] | < 70% | < 70% | < 70% | > 70% |  |  |  |  |
| CCCC[C@H]1[C@H](C)OC(=O)[C@@H](NC(=O)c2nccc(OC)c2O)COC[C@@H]1OCc1ccccc1 [Compound 37] | > 70% | > 70% | > 70% | > 70% |  |  |  |  |
| COc1ccnc(C(=O)N[C@H]2COC[C@H](OCc3ccccc3)[C@@H](Cc3ccc(F)cc3)[C@H](C)OC2=O)c1O [Compound 38] | > 70% | > 70% | > 70% | > 70% |  |  |  |  |
| CCCC[C@H]1[C@H](C)OC(=O)[C@@H](NC(=O)c2nccc(OC)c2OCOC(C)=O)COC[C@@H]1OCc1ccccc1 [Compound 40] |  |  |  |  | > 70% | > 70% | > 70% | > 70% |
| CCCC[C@H]1[C@H](C)OC(=O)[C@@H](NC(=O)c2nccc(OC)c2OCOC(C)=O)COC[C@@H]1OC(=O)C(C)C [Compound 43] |  |  |  |  | > 70% | > 70% | < 70% | > 70% |
| CCCC[C@H]1[C@H](C)OC(=O)[C@@H](NC(=O)c2nccc(OC)c2OCOC(C)=O)COC[C@@H]1Oc1ccccc1 [Compound 44] |  |  |  |  | > 70% | > 70% | > 70% | > 70% |
| CCCC[C@H]1[C@H](C)OC(=O)[C@@H](NC(=O)c2nccc(OC)c2O)COC[C@@H]1Oc1ccccc1 [Compound 45] | > 70% | < 70% | > 70% | < 70% |  |  |  |  |
| COc1ccnc(C(=O)N[C@H]2COC[C@H](Oc3ccccc3)[C@@H](CCC(C)C)[C@H](C)OC2=O)c1OC(C)=O [Compound 47] |  |  |  |  | > 70% | < 70% | > 70% | > 70% |
| CCCC[C@H]1[C@H](C)OC(=O)[C@@H](NC(=O)c2nccc(OC)c2OCOC(C)=O)COC[C@@H]1OCCCC(F)(F)F [Compound 48] |  |  |  |  | > 70% | > 70% | > 70% | > 70% |
| CCCC[C@H]1[C@H](C)OC(=O)[C@@H](NC(=O)c2nccc(OC)c2O)COC[C@@H]1OC(=O)C(C)C [Compound 58] | > 70% | < 70% | < 70% | > 70% |  |  |  |  |
| COc1ccnc(C(=O)N[C@H]2COC[C@H](OC(=O)C3CC3)[C@@H](Cc3ccc(F)cc3)[C@H](C)OC2=O)c1OCOC(C)=O [Compound 59] |  |  |  |  | > 70% | > 70% | > 70% | > 70% |
